Measured values as given in article PMC4604124, “In Vitro Characterization of the Pharmacological Properties of the Anti-Cancer Chelator, Bp4eT, and Its Phase I Metabolites” (PLoS ONE, 2015).
Where “and” joins values, the source holds several entries; their conditions need not be identical. Identical values can stand only once.

What was measured:
[1] = Ascorbate oxidation assay (redox activity of iron complexes); format: biochemical;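 as to %Fe 30min (ascorbate oxidation, Fe 100%), průměr: IBE 3 means excess free chelator over iron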;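 as to %Fe 30min (ascorbate oxidation, Fe 100%): IBE 3 means excess free chelator over iron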;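 as to %Fe 30min (ascorbate oxidation, Fe = 100%), průměr (mean): IBE 1 means iron-binding equivalents giving fully coordinated iron-chelator complexes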;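 as to %Fe 30min (ascorbate oxidation, Fe = 100%), single replicates: IBE 1 means iron-binding equivalents giving fully coordinated iron-chelator complexes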;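 as to Change of absorbance, odečet 0 (time 0 subtracted), čas 10, průměr: IBE 3 means excess free chelator over 10 µM FeCl3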;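 as to Change of absorbance, odečet 0 (time 0 subtracted), čas 10: IBE 3 means excess free chelator over 10 µM FeCl3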;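 as to Change of absorbance, odečet 0 (time 0 subtracted), čas 20, průměr: 100 µM ascorbate with 10 µM FeCl3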;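 as to Change of absorbance, odečet 0 (time 0 subtracted), čas 20: 100 µM ascorbate with 10 µM FeCl3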;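 as to Change of absorbance, odečet 0 (time 0 subtracted), čas 30, průměr: 100 µM ascorbate with 10 µM FeCl3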;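 as to Change of absorbance, odečet 0 (time 0 subtracted), čas 30: 100 µM ascorbate with 10 µM FeCl3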;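 as to odečet 0 (reading minus time 0 reading) at čas 20, single replicates: IBE 1 means fully coordinated iron chelator complexes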;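 as to odečet 0 (reading minus time 0 reading) at čas 30, průměr (mean): IBE 1 means fully coordinated iron chelator complexes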;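 as to odečet 0 (reading minus time 0 reading) at čas 30, single replicates: IBE 1 means fully coordinated iron chelator complexes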;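 as to raw reading at čas 20 (time 20), průměr (mean): IBE 1 means fully coordinated iron chelator complexes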;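 as to raw reading at čas 20 (time 20), single replicates: IBE 1 means fully coordinated iron chelator complexes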;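 as to raw reading at čas 30 (time 30), průměr (mean): IBE 1 means fully coordinated iron chelator complexes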;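 as to raw reading at čas 30 (time 30), single replicates: IBE 1 means fully coordinated iron chelator complexes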
caspases 3/7 = assay: Caspase activity, luminescent kit, caspases 3/7; format: cell-based, human; details: for kaspáza (3) a 7, raw signal / kaspáza (3) a 7, signal / viabilita: individual experiments by date; for kaspáza (3) a 7, raw signal, průměry / kaspáza (3) a 7, % kontroly / kaspáza (3) a 7, signal / viabilita, průměry: mean; for kaspáza (3) a 7, % kontroly / kaspáza (3) a 7, signal / viabilita / kaspáza (3) a 7, signal / viabilita, průměry: normalised to viability
[2] = sheet IBE 1, time 10, replicates
[3] = sheet IBE 1, time 20, replicates
[4] = sheet IBE 1, time 30, replicates

SMILES: CCNC(=O)NN=C(c1ccccc1)c1ccccn1 [Z-Bp4eS, 2-benzoylpyridine 4-ethylsemicarbazone]
- %Fe 30min (ascorbate oxidation, Fe = 100%), průměr (mean) ([1]; sheet IBE 1, 30min, Fe 100%, mean): 102.1%
- %Fe 30min (ascorbate oxidation, Fe = 100%), single replicates ([1]; sheet IBE 1, 30min, Fe 100%, replicates): 100.6% and 105.4% and 99.81% and 137.6% and 115.7% and 98.81% and 93.49% and 86.5% and 81.2%
- raw reading at čas 0 (time 0), průměr (mean) ([1]; sheet IBE 1, time 0, mean of 9 readings): 0.8114
- raw reading at čas 0 (time 0), single replicates ([1]; sheet IBE 1, time 0, replicates of 2014-03-24 (two runs) and 2014-03-25): 0.8361 and 0.825 and 0.7812 and 0.7956 and 0.8012 and 0.8226 and 0.8158 and 0.7997 and 0.8255
- odečet 0 (reading minus time 0 reading) at čas 10, průměr (mean) ([1]; sheet IBE 1, time 10, mean): -0.03354
- raw reading at čas 10 (time 10), průměr (mean) ([1]; sheet IBE 1, time 10, mean of 9 readings): 0.7779
- odečet 0 (reading minus time 0 reading) at čas 10, single replicates [1, 2]: -0.0282 and -0.0302 and -0.027 and -0.05761 and -0.03481 and -0.02931 and -0.03593 and -0.03173 and -0.02703
- raw reading at čas 10 (time 10), single replicates [1, 2]: 0.753 and 0.7654 and 0.7742 and 0.765 and 0.781 and 0.7704 and 0.7896 and 0.8044 and 0.798
- odečet 0 (reading minus time 0 reading) at čas 20, průměr (mean) ([1]; sheet IBE 1, time 20, mean): -0.06288
- raw reading at čas 20 (time 20), průměr (mean) ([1]; sheet IBE 1, time 20, mean of 9 readings): 0.7486
- odečet 0 (reading minus time 0 reading) at čas 20, single replicates [1, 3]: -0.05822 and -0.05772 and -0.05662 and -0.09103 and -0.07213 and -0.05933 and -0.06186 and -0.05806 and -0.05096
- raw reading at čas 20 (time 20), single replicates [1, 3]: 0.723 and 0.7379 and 0.7446 and 0.7316 and 0.7437 and 0.7404 and 0.7637 and 0.7781 and 0.7741
- odečet 0 (reading minus time 0 reading) at čas 30, průměr (mean) ([1]; sheet IBE 1, time 30, mean): -0.09054
- raw reading at čas 30 (time 30), průměr (mean) ([1]; sheet IBE 1, time 30, mean of 9 readings): 0.7209
- odečet 0 (reading minus time 0 reading) at čas 30, single replicates [1, 4]: -0.08693 and -0.09103 and -0.08623 and -0.1189 and -0.09997 and -0.08537 and -0.08823 and -0.08163 and -0.07663
- raw reading at čas 30 (time 30), single replicates [1, 4]: 0.6943 and 0.7046 and 0.715 and 0.7038 and 0.7159 and 0.7144 and 0.7373 and 0.7545 and 0.7484
- %Fe 30min (ascorbate oxidation, Fe 100%), průměr ([1]; sheet IBE 3, 30min, Fe alone = 100%, mean (průměr) of the 9 replicates): 110.1%
- %Fe 30min (ascorbate oxidation, Fe 100%) ([1]; sheet IBE 3, 30min, Fe alone = 100%, single replicates): 104.7% and 99.68% and 110% and 146.8% and 116.1% and 111.6% and 112.3% and 95.38% and 93.85%
- Change of absorbance, odečet 0 (time 0 subtracted), čas 10, průměr ([1]; sheet IBE 3, time 10 minus time 0, mean (průměr)): -0.03903
- Change of absorbance, odečet 0 (time 0 subtracted), čas 10 ([1]; sheet IBE 3, time 10 minus time 0, single replicates): -0.0367 and -0.0322 and -0.0443 and -0.057 and -0.0434 and -0.0428 and -0.03948 and -0.02878 and -0.02658
- Change of absorbance, odečet 0 (time 0 subtracted), čas 20, průměr ([1]; sheet IBE 3, time 20 minus time 0, mean (průměr)): -0.07371
- Change of absorbance, odečet 0 (time 0 subtracted), čas 20 ([1]; sheet IBE 3, time 20 minus time 0, single replicates): -0.07156 and -0.06896 and -0.07856 and -0.1012 and -0.07529 and -0.07709 and -0.07424 and -0.05944 and -0.05704
- Change of absorbance, odečet 0 (time 0 subtracted), čas 30, průměr ([1]; sheet IBE 3, time 30 minus time 0, mean (průměr)): -0.1017
- Change of absorbance, odečet 0 (time 0 subtracted), čas 30 ([1]; sheet IBE 3, time 30 minus time 0, single replicates): -0.09723 and -0.09253 and -0.1021 and -0.1363 and -0.1078 and -0.1036 and -0.1028 and -0.0873 and -0.0859
- kaspáza (3) a 7, raw signal (caspases 3/7; 3 hodiny): 1797.5 and 1540 and 1728.5 and 1382
- kaspáza (3) a 7, raw signal, průměry (caspases 3/7; 3 hodiny): 1612
- kaspáza (3) a 7, % kontroly (caspases 3/7; 3 hodiny): 100.57 % kontroly
- kaspáza (3) a 7, signal / viabilita (caspases 3/7; 3 hodiny): 18.4535 and 15.81 and 17.7452 and 14.1879
- kaspáza (3) a 7, signal / viabilita, průměry (caspases 3/7; 3 hodiny): 16.5491
- kaspáza (3) a 7, raw signal (caspases 3/7; 24 hodin): 2520 and 2115 and 2668.5 and 2356.5
- kaspáza (3) a 7, raw signal, průměry (caspases 3/7; 24 hodin): 2415
- kaspáza (3) a 7, % kontroly (caspases 3/7; 24 hodin): 106.11 % kontroly
- kaspáza (3) a 7, signal / viabilita (caspases 3/7; 24 hodin): 25.3376 and 21.2655 and 26.8307 and 23.6936
- kaspáza (3) a 7, signal / viabilita, průměry (caspases 3/7; 24 hodin): 24.2818
- kaspáza (3) a 7, raw signal (caspases 3/7; 72 hodin): 7018 and 6964.5 and 7418.5 and 7469
- kaspáza (3) a 7, raw signal, průměry (caspases 3/7; 72 hodin): 7217.5
- kaspáza (3) a 7, % kontroly (caspases 3/7; 72 hodin): 104.65 % kontroly
- kaspáza (3) a 7, signal / viabilita (caspases 3/7; 72 hodin): 75.0267 and 74.4548 and 79.3083 and 79.8482
- kaspáza (3) a 7, signal / viabilita, průměry (caspases 3/7; 72 hodin): 77.1595
